# Test results reported in ChEMBL document CHEMBL5653595 (J Biol Chem, 2003).
# Activity calls are given as the source filed them. The rule behind the calls is not given here.
# Tests used:
# [1] = Half life in BALB/c mouse at 2 mg/kg, iv measured upto 8 hrs by LC-MS-MS analysis; type: ADME, organism-based; details: in vivo
# [2] = molecular target: Mitogen-activated protein kinase 1 (Homo sapiens) (UniProt P28482); test: Inhibition of recombinant human ERK2 at 100 uM
# [3] = Aqueous solubility of compound; type: physicochemical; details: buffer
# [4] = molecular target: Tyrosine-protein kinase Lck (Homo sapiens) (UniProt P06239); test: Inhibition of recombinant human LCK at 100 uM
# [5] = molecular target: T1, Protein kinase C zeta type (Homo sapiens) (UniProt Q05513); test: Inhibition of recombinant human PKCzeta at 100 uM
# T1 sequence (whole entry): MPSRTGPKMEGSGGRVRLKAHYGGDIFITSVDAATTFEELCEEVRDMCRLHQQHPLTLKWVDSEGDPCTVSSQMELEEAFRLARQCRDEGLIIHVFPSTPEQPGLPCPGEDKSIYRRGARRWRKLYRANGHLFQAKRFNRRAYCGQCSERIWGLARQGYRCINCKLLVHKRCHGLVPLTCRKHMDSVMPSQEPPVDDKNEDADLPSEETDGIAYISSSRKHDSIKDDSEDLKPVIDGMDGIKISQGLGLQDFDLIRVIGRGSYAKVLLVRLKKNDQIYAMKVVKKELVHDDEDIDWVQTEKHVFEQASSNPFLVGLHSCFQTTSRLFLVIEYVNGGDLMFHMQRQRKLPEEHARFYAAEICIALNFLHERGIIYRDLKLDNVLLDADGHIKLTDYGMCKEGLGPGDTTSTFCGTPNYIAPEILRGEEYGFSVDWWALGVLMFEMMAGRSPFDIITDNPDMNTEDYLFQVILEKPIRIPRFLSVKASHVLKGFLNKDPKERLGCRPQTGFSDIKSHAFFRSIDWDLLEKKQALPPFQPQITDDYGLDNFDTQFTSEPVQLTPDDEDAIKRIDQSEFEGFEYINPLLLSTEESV
# [6] = Oral bioavailability in BALB/c mouse at 10 mg/kg measured upto 8 hrs by LC-MS-MS analysis; type: ADME, organism-based; details: in vivo
# THP-1 [7] = test: Antiinflammatory activity against LPS-induced human THP-1 cells assessed as reduction in IL-6 cytokine level preincubated for 1 hr followed by LPS-stimulation and measured after 24 hrs by enzyme immunoassay; type: functional, cell-based
# Mus musculus [8] = test: Antiinflammatory activity against LPS-induced po dosed BALB/c mouse assessed as reduction in TNFalpha cytokine level pretreated for 1 hr followed by LPS-stimulation and measured after 90mins by enzyme immunoassay; type: functional, organism-based; details: dose 1-100 mg/kg, time 150.0 min
# [9] = molecular target: MAP kinase-activated protein kinase 2 (Homo sapiens) (UniProt P49137); test: Inhibition of LPS-stimulated MAPKAPK2 activation in human THP-1 cells at 100 uM using [33P]ATP as substrate pre incubated for 60 mins followed by LPS-stimulation for 30 mins; type: cell-based; details: time 90.0 min
# Chain of MAP kinase-activated protein kinase 2 (Homo sapiens) (P49137 whole entry, looked up): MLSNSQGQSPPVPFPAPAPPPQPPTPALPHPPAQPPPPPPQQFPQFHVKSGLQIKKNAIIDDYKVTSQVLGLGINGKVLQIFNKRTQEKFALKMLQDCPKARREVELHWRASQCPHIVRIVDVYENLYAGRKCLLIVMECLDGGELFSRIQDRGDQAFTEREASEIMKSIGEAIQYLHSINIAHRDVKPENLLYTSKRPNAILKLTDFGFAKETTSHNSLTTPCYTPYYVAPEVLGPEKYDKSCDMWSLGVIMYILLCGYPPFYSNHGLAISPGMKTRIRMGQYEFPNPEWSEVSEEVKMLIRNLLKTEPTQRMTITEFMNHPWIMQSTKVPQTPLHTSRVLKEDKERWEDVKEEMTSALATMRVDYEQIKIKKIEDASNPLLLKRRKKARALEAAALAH
# [10] = Tmax in BALB/c mouse at 10 mg/kg, po measured upto 8 hrs by LC-MS-MS analysis; type: ADME, organism-based; details: in vivo
# THP-1 [11] = test: Antiinflammatory activity against LPS-induced human THP-1 cells assessed as reduction in IL-1beta cytokine level preincubated for 1 hr followed by LPS-stimulation and measured after 6 hrs by enzyme immunoassay; type: functional, cell-based
# [12] = Volume of distribution at steady state in BALB/c mouse at 2 mg/kg, iv measured upto 8 hrs by LC-MS-MS analysis; type: ADME, organism-based; details: in vivo, read-out: Vdss
# Mus musculus [13] = test: Antiinflammatory activity against LPS-induced BALB/c mouse assessed as reduction in TNFalpha cytokine level at 10 mg/kg, po pretreated for 1 hr followed by LPS-stimulation and measured after 90mins by enzyme immunoassay; type: functional; design: scale not given: the % may be the effect or the level left; details: time 150 min, 2.5 h
# THP-1 [14] = test: Antiinflammatory activity against LPS-induced human THP-1 cells assessed as reduction in TNFalpha cytokine level preincubated for 1 hr followed by LPS-stimulation and measured after 6 hrs by enzyme immunoassay; type: functional, cell-based
# [15] = molecular target: Protein kinase C alpha type (Homo sapiens) (UniProt P17252); test: Inhibition of recombinant human PKCalpha at 100 uM
# [16] = molecular target: Signal transducer and activator of transcription 3 (Homo sapiens) (UniProt P40763); test: Inhibition of EGF-stimulated STAT3 phosphorylation in human NCI-H292 cells at 100 uM pre incubated for 60 mins followed by […] stimulation for 5 mins by immunoblot analysis; type: cell-based; details: time 65.0 min
# Chain of Signal transducer and activator of transcription 3 (Homo sapiens) (P40763 whole entry): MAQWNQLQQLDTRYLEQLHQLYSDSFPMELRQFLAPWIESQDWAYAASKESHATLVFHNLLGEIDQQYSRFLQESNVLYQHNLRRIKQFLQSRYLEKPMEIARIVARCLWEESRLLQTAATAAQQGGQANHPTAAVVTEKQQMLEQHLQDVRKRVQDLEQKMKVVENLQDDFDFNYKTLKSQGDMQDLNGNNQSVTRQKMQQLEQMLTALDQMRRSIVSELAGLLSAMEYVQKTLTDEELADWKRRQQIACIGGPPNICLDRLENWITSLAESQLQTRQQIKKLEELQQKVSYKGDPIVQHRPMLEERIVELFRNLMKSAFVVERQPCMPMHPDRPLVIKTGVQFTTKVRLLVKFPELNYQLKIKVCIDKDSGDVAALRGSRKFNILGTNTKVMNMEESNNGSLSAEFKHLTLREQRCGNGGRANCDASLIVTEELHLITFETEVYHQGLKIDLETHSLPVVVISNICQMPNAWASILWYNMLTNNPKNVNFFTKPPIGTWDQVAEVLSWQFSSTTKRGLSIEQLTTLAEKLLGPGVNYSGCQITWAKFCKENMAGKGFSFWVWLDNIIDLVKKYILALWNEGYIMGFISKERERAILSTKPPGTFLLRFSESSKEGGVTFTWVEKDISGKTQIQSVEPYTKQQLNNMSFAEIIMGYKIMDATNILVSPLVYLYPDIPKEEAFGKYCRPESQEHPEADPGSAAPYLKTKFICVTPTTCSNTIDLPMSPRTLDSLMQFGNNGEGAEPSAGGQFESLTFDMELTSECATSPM
# THP-1 [17] = test: Cytotoxicity against human THP-1 cells by trypan blue exclusion assay; type: toxicity, cell-based
# Mus musculus [18] = test: Antiinflammatory activity against LPS-induced BALB/c mouse assessed as reduction in TNFalpha cytokine level at 100 mg/kg, po pretreated for 1 hr followed by LPS-stimulation and measured after 90mins by enzyme immunoassay; type: functional; design: scale not given: the % may be the effect or the level left; details: time 150 min, 2.5 h
# [19] = molecular target: Receptor tyrosine-protein kinase erbB-2 (Homo sapiens) (UniProt P04626); test: Inhibition of recombinant human Her2 at 100 uM
# Chain of Receptor tyrosine-protein kinase erbB-2 (Homo sapiens) (P04626 whole entry): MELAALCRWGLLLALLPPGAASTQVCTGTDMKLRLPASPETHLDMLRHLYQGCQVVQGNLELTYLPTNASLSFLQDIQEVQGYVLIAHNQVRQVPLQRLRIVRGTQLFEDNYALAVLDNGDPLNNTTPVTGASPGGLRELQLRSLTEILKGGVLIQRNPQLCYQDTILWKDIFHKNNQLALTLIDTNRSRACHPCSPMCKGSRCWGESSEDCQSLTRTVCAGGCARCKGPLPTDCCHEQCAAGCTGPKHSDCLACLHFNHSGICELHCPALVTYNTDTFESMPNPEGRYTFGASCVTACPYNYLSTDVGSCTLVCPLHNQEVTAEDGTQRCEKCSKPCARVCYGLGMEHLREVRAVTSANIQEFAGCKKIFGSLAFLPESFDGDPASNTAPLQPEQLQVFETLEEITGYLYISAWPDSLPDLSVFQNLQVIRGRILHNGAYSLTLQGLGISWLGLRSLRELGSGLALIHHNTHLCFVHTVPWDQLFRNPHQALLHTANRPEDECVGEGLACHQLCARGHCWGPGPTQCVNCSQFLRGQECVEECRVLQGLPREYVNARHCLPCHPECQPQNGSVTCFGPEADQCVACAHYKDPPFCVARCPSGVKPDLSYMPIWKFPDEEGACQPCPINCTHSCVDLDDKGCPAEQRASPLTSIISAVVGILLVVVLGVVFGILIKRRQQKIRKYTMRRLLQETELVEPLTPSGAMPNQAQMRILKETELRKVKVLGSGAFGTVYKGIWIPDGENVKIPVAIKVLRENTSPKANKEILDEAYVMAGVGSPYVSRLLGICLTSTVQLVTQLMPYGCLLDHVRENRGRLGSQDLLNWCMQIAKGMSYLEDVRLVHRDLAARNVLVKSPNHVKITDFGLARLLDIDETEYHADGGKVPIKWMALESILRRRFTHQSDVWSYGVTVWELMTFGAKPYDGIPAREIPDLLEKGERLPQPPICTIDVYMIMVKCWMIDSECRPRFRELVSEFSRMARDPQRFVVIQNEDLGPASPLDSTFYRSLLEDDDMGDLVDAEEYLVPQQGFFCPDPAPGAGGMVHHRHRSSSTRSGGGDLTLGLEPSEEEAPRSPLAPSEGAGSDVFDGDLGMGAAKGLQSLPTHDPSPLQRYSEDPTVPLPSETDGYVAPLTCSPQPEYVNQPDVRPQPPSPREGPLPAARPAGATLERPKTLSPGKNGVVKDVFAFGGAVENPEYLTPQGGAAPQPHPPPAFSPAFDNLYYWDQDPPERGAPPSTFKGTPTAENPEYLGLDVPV
# [20] = molecular target: T2, Tyrosine-protein kinase JAK3 (Homo sapiens) (UniProt P52333); test: Inhibition of recombinant human JAK3 at 100 uM
# T2 sequence (whole entry): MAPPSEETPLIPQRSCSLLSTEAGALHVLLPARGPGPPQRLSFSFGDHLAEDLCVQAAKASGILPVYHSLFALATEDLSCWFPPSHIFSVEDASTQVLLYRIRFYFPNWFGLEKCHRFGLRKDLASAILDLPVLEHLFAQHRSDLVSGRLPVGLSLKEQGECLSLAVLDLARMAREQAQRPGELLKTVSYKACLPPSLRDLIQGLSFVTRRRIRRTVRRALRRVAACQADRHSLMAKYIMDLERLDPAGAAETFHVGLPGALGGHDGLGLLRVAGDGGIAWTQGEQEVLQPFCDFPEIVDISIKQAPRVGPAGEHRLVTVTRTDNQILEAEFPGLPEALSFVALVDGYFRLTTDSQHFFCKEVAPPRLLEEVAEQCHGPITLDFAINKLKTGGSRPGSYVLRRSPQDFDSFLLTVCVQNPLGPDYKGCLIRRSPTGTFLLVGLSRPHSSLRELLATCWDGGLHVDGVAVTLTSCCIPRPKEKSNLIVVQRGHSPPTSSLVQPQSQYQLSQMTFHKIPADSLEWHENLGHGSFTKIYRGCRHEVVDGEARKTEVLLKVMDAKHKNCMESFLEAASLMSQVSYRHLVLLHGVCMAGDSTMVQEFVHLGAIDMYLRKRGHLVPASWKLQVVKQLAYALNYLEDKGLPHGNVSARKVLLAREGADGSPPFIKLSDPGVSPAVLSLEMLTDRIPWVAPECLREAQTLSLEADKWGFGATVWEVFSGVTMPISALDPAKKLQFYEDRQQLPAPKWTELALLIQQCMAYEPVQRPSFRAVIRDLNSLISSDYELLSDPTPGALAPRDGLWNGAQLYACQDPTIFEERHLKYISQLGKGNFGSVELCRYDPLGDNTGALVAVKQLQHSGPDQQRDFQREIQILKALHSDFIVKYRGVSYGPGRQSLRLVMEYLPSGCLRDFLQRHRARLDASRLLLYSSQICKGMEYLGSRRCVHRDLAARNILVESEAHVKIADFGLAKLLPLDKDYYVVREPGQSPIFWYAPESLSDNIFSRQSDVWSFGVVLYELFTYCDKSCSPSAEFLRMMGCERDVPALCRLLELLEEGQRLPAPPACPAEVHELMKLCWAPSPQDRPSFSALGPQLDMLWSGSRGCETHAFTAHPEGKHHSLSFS
# [21] = molecular target: T3, Tyrosine-protein kinase ITK/TSK (Homo sapiens) (UniProt Q08881); test: Inhibition of recombinant human EMT at 100 uM
# T3 sequence (whole entry): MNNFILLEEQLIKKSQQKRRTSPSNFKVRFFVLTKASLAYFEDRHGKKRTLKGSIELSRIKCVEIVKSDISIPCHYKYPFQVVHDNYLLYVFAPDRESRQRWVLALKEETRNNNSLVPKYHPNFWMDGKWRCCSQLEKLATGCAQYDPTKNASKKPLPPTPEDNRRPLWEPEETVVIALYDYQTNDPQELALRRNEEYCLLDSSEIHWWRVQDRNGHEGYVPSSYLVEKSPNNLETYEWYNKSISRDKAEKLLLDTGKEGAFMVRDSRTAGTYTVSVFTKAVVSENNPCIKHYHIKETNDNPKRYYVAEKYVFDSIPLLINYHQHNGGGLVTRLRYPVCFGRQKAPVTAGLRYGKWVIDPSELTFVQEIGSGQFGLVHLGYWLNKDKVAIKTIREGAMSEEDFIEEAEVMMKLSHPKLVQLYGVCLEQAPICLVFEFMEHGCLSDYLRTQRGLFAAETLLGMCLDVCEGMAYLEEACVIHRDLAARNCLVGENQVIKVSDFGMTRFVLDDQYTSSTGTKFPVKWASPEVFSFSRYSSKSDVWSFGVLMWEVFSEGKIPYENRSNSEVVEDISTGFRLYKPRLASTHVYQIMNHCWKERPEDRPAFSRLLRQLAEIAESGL
# THP-1 [22] = test: Antiinflammatory activity against LPS-induced human THP-1 cells assessed as reduction in IL-8 cytokine level preincubated for 1 hr followed by LPS-stimulation and measured after 6 hrs by enzyme immunoassay; type: functional, cell-based
# [23] = Total clearance in BALB/c mouse at 2 mg/kg, iv measured upto 8 hrs by LC-MS-MS analysis; type: ADME, organism-based; details: in vivo
# [24] = molecular target: MAP kinase-activated protein kinase 2 (Homo sapiens) (UniProt P49137); test: Inhibition of recombinant human MAPKAPK2 at 100 uM
# [25] = molecular target: Insulin-like growth factor 1 receptor (Homo sapiens) (UniProt P08069); test: Inhibition of recombinant human IGF1R at 100 uM
# [26] = molecular target: T4, Inhibitor of nuclear factor kappa-B kinase subunit epsilon (Homo sapiens) (UniProt Q14164); test: Inhibition of GST-tagged IKKE (unknown origin) expressed in High five cells using LDDRHDSGLDSMKDEEY as substrate incubated for 5 mins in presence of [gamma33P]ATP by liquid scintillation counter analysis
# T4 sequence (whole entry): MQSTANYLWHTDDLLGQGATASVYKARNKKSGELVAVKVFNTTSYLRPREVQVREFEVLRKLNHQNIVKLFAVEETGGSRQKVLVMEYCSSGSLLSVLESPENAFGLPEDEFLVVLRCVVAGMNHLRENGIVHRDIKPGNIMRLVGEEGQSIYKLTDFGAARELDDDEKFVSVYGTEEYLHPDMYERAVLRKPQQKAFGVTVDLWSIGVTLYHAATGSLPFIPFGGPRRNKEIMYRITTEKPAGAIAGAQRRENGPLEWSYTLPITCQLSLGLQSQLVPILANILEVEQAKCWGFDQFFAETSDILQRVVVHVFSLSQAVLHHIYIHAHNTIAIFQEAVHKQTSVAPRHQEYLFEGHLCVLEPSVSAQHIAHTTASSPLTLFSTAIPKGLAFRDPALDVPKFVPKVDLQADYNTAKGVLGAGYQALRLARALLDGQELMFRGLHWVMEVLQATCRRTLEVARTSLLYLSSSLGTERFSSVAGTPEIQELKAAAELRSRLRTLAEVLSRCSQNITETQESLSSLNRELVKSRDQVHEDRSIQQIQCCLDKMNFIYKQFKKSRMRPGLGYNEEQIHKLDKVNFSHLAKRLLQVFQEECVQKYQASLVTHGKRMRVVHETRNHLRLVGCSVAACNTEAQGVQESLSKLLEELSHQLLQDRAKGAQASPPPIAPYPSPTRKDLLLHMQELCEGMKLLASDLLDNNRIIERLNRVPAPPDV
# [27] = molecular target: Mitogen-activated protein kinase 14 (Homo sapiens) (UniProt Q16539); test: Inhibition of recombinant human P38alpha at 100 uM
# Chain of Mitogen-activated protein kinase 14 (Homo sapiens) (Q16539 whole entry): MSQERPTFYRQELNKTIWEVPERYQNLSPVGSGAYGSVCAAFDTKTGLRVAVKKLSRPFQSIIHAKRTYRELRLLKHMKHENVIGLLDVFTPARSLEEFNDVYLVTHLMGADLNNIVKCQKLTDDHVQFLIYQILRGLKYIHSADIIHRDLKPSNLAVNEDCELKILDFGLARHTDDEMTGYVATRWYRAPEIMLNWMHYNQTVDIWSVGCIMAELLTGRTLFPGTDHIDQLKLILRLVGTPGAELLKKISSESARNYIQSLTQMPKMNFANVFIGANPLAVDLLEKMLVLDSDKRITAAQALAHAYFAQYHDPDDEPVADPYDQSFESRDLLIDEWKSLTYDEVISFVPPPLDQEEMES
# [28] = molecular target: Epidermal growth factor receptor (Homo sapiens) (UniProt P00533); test: Inhibition of recombinant human Her1 at 100 uM
# Chain of Epidermal growth factor receptor (Homo sapiens) (P00533 whole entry): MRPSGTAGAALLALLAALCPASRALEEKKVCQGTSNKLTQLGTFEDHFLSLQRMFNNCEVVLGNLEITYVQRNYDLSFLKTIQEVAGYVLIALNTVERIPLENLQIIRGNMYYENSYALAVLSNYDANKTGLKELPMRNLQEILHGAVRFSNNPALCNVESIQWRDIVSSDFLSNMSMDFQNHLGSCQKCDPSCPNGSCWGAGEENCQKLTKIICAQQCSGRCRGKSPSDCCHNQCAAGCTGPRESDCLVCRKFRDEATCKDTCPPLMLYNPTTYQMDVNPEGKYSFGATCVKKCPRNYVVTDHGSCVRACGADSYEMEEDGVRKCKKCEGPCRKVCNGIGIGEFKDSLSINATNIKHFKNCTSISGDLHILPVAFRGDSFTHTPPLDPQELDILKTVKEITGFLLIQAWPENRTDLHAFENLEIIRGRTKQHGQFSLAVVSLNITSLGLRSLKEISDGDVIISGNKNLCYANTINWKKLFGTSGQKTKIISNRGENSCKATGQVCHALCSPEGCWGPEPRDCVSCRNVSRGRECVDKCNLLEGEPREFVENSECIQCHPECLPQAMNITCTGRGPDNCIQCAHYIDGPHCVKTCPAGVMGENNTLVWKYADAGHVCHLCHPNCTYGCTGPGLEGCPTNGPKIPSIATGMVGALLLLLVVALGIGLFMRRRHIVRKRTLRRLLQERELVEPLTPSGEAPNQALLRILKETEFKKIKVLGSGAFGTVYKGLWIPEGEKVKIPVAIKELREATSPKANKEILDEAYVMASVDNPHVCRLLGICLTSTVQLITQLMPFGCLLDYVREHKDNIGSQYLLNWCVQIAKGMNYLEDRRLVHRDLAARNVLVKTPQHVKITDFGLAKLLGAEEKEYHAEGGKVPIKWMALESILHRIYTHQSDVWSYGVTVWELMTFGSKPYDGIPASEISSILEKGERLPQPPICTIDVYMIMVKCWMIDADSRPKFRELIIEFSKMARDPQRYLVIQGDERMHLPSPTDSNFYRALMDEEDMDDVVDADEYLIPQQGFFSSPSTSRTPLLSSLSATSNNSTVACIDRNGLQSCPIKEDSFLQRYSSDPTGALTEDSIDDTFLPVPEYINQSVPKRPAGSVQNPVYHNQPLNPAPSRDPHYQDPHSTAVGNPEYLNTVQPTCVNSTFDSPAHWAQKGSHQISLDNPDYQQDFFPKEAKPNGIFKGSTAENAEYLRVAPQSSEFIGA
# Homo sapiens = organism: Homo sapiens; test: Inhibition of recombinant human MAPK at 100 uM
# [29] = Cmax in BALB/c mouse at 10 mg/kg, po measured upto 8 hrs by LC-MS-MS analysis; type: ADME, organism-based; details: in vivo
# Chain of Mitogen-activated protein kinase 1 (Homo sapiens) (P28482 whole entry): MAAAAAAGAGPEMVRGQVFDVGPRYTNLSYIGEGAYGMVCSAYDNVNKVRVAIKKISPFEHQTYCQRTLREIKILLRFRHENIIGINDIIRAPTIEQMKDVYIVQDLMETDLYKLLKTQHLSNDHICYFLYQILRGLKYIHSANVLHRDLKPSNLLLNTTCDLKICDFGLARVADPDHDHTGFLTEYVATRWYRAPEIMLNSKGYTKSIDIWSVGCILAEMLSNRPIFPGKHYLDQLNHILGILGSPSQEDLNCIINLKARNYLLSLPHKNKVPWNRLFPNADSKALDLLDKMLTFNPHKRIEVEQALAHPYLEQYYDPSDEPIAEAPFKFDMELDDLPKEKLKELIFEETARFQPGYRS
compound,measurement,setting,value
Cc1ccc2nc(NCCN)c3ncc(C)n3c2c1 [BMS-345541],half-life,[1],2.2 h
same,inhibition,[2],inactive
same,solubility,[3],Soluble
same,inhibition,[4],inactive
same,inhibition,[5],inactive
same,bioavailability,[6],~100%
same,IC50,THP-1 [7],1000 nM
same,Activity,Mus musculus [8],Dose-Dependent Effect
same,inhibition,[9],inactive
same,Tmax,[10],0.52 h
same,IC50,THP-1 [11],1000 nM
same,Vd,[12],18.5 L/kg
same,Activity,Mus musculus [13],50%
same,IC50,THP-1 [14],1000 nM
same,inhibition,[15],inactive
same,inhibition,[16],inactive
same,Activity,THP-1 [17],Non-Toxic
same,Activity,Mus musculus [18],100%
same,inhibition,[19],inactive
same,inhibition,[20],inactive
same,inhibition,[21],inactive
same,IC50,THP-1 [22],1000 nM
same,clearance,[23],114 mL/min/kg
same,inhibition,[24],inactive
same,inhibition,[25],inactive
same,inhibition,[26],inactive
same,inhibition,[27],inactive
same,inhibition,[28],inactive
same,inhibition,Homo sapiens,inactive
same,Cmax,[29],1600 nM
